In article PMC3095640, “Potent Host-Directed Small-Molecule Inhibitors of Myxovirus RNA-Dependent RNA-Polymerases” (PLoS ONE, 2011):
Read-outs that look alike come from different tables or passages of the source.

Columns and labels:
[1] = Cytotoxicity (metabolic activity), BHK-21; type: cell-based, Rodent-Syrian hamster; details: Syrian hamster, BHK-21 cells, highest concentration assessed 75 µM
Experimental: (§1) A non-radioactive cytotoxicity assay (CytoTox 96 Non-Radioactive Cytotoxicity Assay, Promega) was employed to determine the metabolic activity of cell after exposure to the compound. In a 96-well plate format, 10,000 cells per well were incubated at 37°C for 24 hours in four replicates per concentration tested in the presence of compound in two-fold dilutions starting at 75 µM. Substrate was then added and color development measured at 490 nm using a BioRad plate reader. Values were calculated according to the formula [% toxicity = 100−((experimental-background)/(maximum(vehicle treated)-background)*100)]. Values were plotted in dose-response curves and, if applicable, CC50 concentrations calculated.

[2] = test system: MeV-Alaska particles; assay: Virus pre-incubation (virucidal activity) assay; type: cell-based, measles virus; details: 1.0 µM for 60 minutes, diluted to 1.0 nM
[3] = Cytotoxicity (metabolic activity), HT1080; type: cell-based; details: human, HT1080 cells, highest concentration assessed 75 µM
Experimental: as §1

[4] = test system: bronchial epithelial cells; assay: Metabolic activity of primary human bronchial epithelial cells; type: cell-based; details: 24 hours exposure
Experimental: as §1

[5] = test system: MeV-Alaska; assay: Immunodetection of virus-encoded MeV-F; type: cell-based, measles virus; details: 100 nM
[6] = test system: cdc2-cyclin B kinase; assay: Immunoblot of cdc2-cyclin B kinase phosphorylation status; type: cell-based; details: phospho-cdc2 (Tyr15)
[7] = test system: MeV H and F mediated cell-to-cell fusion; assay: MeV glycoprotein-mediated cell-to-cell fusion assay; set-up: species or system measles virus; details: microscopic and luciferase reporter-based
[8] = Cytotoxicity (metabolic activity), MEL B16; type: cell-based, Rodent-mouse; details: mouse, MEL B16 cells, highest concentration assessed 75 µM
Experimental: as §1

[9] = target: MeV RdRp (Measles morbillivirus (Measles virus), UniProt P12576); assay: MeV minireplicon luciferase reporter assay; type: cell-based; details: BHK-T7 cells, 36 hours
Experimental: BSR T7/5 cells (5×10^5/well) were transfected with plasmid DNAs encoding MeV-L (0.24 µg), MeV-N (0.94 µg) or MeV-P (0.29 µg) and 2 µg of the MeV luciferase minigenome reporter plasmid. Control wells included identical amounts of reporter and helper plasmids but lacked the L-encoding plasmid. At the time of transfection, JMN3-003 was added as specified, while control wells received vehicle only for comparison. Thirty-six hours post-transfection, cells were lysed with Bright GLO lysis buffer and relative luciferase activities determined using the Britelite substrate and a luminescence counter as outlined above.

[10] = test system: SOI Influenza A/Mexico; assay: Virus yield reduction assay, SOI influenza A/Mexico; type: cell-based, swine-origin influenza virus isolate S-OIV Mexico; details: genome copy numbers of released progeny particles by TaqMan RT-PCR
[11] = test system: sindbis virus; type: cell-based; details: compared with activity against myxoviruses
[12] = test system: Influenza A/PR/8/34; assay: Virus yield reduction assay, influenza A/PR/8/34; type: cell-based, influenza A strain PR8/34 (H1N1); details: genome copy numbers of released progeny particles by TaqMan RT-PCR
[13] = test system: Influenza A/WSN; assay: Virus yield reduction assay, influenza A/WSN; type: cell-based, influenza A strain WSN (H1N1)
[14] = Cytotoxicity (metabolic activity), HeLa; type: cell-based; details: human, HeLa cells, highest concentration assessed 75 µM
Experimental: as §1

[15] = Cytotoxicity (metabolic activity), CHO; type: cell-based, Rodent-Chinese hamster; details: Chinese hamster, CHO cells, highest concentration assessed 75 µM
Experimental: as §1

[16] = Cytotoxicity (metabolic activity), MDCK; type: cell-based, Canine-dog; details: dog, MDCK cells, highest concentration assessed 75 µM
Experimental: as §1

[17] = in vitro; type: cell-based, Avian-chicken; details: chicken; DF-1; highest concentration assessed 75 µM; read-out: CC50, Metabolic Activity
Experimental: as §1

[18] = Metabolic stability in human liver S9 fractions; type: in vitro ADME
Experimental: JMN3-003 was mixed with liver S9 fractions (protein concentration 2.5 mg/ml) from pooled mixed gender humans (XenoTech) at a final concentration of 1 µM and reactions initiated by the addition of cofactors (1.14 mM NADPH, 1.43 mM glucose-6-phosphate, 1.43 mM uridine 5′-diphosphoglucuronic acid, 9.42 mM potassium chloride, 2.28 mM magnesium chloride) in 100 mM potassium phosphate buffer, pH 7.4. Samples were incubated at 37°C with mixing, aliquots removed after 0, 15, 30 and 60 minutes and subjected to reversed-phase LC-MS/MS (Applied Biosystems API 4000 QTRAP with heated nebulizer; Turbo IonSpray for JMN5-166) analysis. Peak areas were measured to calculate half life and percent of input compound remaining according to the formulas t1/2 = (−0.693/slope of linear regression analysis of log transformed peak area versus) and % input remaining = (peak area of test compound at tx/peak area of test compound at t0)*100. Positive controls to assess the metabolic competency of the liver S9 fractions were 7-Ethoxycoumarin, Propranolol, and Verapamil (Sigma), which were analyzed in parallel to the article. […] Aliquots were removed at distinct time points as indicated and analyzed by LC-MS/MS with detection of the compound at 254 nm. Values are expressed as percent of compound remaining at each time relative to the amount of that compound present at the starting time point.

[19] = Stability in human plasma; details: 120-minute incubation, 37°C
[20] = test system: MeV-Alaska; assay: Post-infection time-of-addition assay; type: cell-based, measles virus; details: 1.0 µM added at times post-infection
[21] = test system: para- and orthomyxovirus family members; assay: organism not typed; type: cell-based

MeV RdRp, sequence (P12576 whole entry, change not shown): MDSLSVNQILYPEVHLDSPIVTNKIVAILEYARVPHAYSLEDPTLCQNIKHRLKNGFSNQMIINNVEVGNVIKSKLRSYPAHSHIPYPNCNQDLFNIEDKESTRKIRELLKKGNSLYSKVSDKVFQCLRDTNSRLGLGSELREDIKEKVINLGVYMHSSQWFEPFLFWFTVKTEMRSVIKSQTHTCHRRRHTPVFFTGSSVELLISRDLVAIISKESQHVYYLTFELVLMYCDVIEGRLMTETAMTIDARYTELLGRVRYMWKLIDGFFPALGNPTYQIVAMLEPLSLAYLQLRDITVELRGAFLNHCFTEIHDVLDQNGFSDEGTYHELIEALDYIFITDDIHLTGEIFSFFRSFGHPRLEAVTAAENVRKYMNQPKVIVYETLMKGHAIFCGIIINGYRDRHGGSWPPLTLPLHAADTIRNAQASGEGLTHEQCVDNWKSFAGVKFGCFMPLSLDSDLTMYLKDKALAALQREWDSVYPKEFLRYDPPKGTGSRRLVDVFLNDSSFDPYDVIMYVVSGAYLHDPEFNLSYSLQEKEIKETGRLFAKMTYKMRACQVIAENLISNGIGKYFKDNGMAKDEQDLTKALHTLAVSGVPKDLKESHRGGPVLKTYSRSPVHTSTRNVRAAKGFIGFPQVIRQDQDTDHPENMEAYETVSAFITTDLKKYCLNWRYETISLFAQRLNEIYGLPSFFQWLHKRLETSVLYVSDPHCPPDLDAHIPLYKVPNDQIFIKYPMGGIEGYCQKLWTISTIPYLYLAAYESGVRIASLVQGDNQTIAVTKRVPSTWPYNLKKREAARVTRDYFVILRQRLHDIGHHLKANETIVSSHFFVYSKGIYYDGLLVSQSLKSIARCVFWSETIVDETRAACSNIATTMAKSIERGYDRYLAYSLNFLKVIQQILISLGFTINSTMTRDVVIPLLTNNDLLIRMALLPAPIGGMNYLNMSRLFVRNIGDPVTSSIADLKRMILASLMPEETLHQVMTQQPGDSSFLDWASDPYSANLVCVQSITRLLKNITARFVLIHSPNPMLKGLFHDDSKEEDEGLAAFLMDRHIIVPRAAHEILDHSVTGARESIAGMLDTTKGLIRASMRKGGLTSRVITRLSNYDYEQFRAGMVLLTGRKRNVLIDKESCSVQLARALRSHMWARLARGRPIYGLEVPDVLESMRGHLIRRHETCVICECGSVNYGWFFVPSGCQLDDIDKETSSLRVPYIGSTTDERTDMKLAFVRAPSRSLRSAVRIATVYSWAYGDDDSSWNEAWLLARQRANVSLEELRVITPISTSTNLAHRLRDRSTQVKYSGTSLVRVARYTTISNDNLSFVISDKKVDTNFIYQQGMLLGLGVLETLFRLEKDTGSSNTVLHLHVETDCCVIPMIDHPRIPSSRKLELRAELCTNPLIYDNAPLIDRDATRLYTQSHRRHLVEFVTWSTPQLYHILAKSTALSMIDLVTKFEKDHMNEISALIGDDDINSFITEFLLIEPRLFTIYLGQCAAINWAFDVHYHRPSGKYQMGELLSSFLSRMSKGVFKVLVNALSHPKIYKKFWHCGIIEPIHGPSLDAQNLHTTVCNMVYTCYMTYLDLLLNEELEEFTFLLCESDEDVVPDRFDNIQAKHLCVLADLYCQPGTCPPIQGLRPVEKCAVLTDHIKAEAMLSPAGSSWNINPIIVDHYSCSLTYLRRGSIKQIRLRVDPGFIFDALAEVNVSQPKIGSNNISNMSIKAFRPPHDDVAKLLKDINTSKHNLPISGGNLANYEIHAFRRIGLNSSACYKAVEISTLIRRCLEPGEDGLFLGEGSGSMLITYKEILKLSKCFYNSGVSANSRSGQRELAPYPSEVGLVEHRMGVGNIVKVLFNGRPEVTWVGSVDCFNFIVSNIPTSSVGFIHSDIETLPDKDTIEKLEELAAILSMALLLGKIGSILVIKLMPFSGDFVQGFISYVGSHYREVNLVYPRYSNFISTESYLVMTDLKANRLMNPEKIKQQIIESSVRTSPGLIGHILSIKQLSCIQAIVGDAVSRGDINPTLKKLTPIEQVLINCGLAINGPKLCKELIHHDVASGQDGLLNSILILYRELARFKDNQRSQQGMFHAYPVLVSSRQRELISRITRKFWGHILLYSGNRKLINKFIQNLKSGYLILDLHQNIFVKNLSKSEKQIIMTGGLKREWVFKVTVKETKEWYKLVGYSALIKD
MeV RdRp, sequence (P03422 whole entry partner): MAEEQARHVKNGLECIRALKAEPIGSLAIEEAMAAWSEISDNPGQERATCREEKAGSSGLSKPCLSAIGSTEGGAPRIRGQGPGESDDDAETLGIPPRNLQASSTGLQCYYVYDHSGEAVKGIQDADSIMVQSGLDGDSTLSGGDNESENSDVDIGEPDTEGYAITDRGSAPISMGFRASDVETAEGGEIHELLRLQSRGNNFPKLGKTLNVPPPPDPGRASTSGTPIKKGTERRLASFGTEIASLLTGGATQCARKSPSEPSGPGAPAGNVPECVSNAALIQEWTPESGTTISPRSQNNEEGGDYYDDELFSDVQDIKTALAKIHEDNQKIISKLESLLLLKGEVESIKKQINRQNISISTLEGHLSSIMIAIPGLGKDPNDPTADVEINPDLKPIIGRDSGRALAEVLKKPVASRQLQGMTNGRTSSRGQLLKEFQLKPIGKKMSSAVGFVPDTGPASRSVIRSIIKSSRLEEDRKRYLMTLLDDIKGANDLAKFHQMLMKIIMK
MeV RdRp, sequence (P0DXN6 whole entry partner): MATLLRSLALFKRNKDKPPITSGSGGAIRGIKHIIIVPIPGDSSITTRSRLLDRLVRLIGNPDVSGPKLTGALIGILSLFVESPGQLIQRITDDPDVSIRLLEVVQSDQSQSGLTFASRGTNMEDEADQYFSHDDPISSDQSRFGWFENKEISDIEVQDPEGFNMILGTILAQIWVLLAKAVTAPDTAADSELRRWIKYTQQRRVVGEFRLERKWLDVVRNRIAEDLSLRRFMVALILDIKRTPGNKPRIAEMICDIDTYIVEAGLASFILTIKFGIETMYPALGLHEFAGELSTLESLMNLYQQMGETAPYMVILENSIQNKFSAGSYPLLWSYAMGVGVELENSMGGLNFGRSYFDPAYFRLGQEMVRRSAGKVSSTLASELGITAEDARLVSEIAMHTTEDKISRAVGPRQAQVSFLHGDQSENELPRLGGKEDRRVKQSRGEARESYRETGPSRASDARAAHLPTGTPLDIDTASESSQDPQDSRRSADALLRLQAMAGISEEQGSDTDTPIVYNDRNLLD

## COc1ccc(-n2c(SC(C)C(=O)Nc3ccc(C)cc3Cl)nc3ccccc32)cc1 (stereo not shown) [JMN3-003]
[1]
  CC50 at 24 h: > 75000 nM
[2]
  antiviral effect of preincubation of viral particles (virucidal activity): lacked any appreciable antiviral effect
[3]
  CC50 at 24 h: > 75000 nM
[4]
  metabolic activity of primary human bronchial epithelial cells: only slightly affected
[5]
  expression of virus-encoded proteins, paramyxovirus infection: fully blocked
[6]
  phosphorylation status of cdc2-cyclin B kinase: increased steady state levels of phosphorylated cdc2-cyclin B kinase
[7]
  MeV glycoprotein-mediated cell-to-cell fusion: extensive membrane fusion indistinguishable from that seen in vehicle-treated controls
[8]
  CC50 at 24 h: > 75000 nM
[9]
  concentration at which luciferase reporter expression was fully blocked: approximately 100 nM
[10]
  EC50: 10 ± 3 nM
[11]
  activity against sindbis virus: to a lesser degree
[12]
  EC50: 10 ± 1 nM
[13]; Influenza A virus, WSN, HT-1080, host cell HT1080 (Human), read-out: EC50, Inhibition of Influenza A/WSN
  EC50: 60 ± 2 nM
[13]; Influenza A virus, WSN, MDCK, read-out: EC50, Inhibition of Influenza A/WSN
  EC50: 10 nM
[13]; Influenza A virus, WSN, NIH3T3, host cell NIH-3T3 (Rodent-mouse), read-out: EC50, Inhibition of Influenza A/WSN
  EC50: > 10000 nM
[13]; Influenza A virus, WSN, genome copy numbers of released progeny particles by TaqMan RT-PCR, read-out: EC50, Influenza A/WSN
  EC50: 10 ± 8 nM
[13]; Influenza A virus, WSN, host cell BHK-21 (Rodent-Syrian hamster), read-out: EC50, Inhibition of Influenza A/WSN
  EC50: 80 ± 10 nM
[13]; Influenza A virus, WSN, host cell CHO (Rodent-Chinese hamster), read-out: EC50, Inhibition of Influenza A/WSN
  EC50: 70 ± 10 nM
[13]; Influenza A virus, WSN, host cell DF-1 (Avian-chicken), read-out: EC50, Inhibition of Influenza A/WSN
  EC50: > 10000 nM
[13]; Influenza A virus, WSN, host cell HeLa (Human), read-out: EC50, Inhibition of Influenza A/WSN
  EC50: 20 ± 10 nM
[13]; host cell MEL B16 (Rodent-mouse), read-out: EC50, Inhibition of Influenza A/WSN
  EC50: > 10000 nM
[14]
  CC50 at 24 h: > 75000 nM
[15]
  CC50 at 24 h: > 75000 nM
[16]
  CC50 at 24 h: > 75000 nM
[17]
  CC50 at 24 h: > 75000 nM
[18]; both sexes, human, liver S9 fractions, pH 7.4, human liver S9 fractions, up to 60 minutes, LC-MS/MS, calculated/extrapolated, read-out: half-life (t1/2)
  half-life at 1 µM: ~3.33 h
[18]; human S-9 fractions, 60-minute exposure, 1 µM
  input material remaining intact: approximately 80%
[19]
  stability in human plasma: virtually unaffected
[20]
  inhibition profile in time-of-addition experiment: very closely resembled the profile of the AS-136A RdRp blocker class
[21]; range depending on the target virus, read-out: active concentrations (anti-myxovirus activity)
  EC50: 10 to 80 nM
[21]; unidentified influenza virus, read-out: average EC50 concentrations
  EC50: ~40 nM
